Results reported in ChEMBL document CHEMBL4229350, “Antimicrobial activity and self-assembly behavior of antimicrobial peptide chensinin-1b with lipophilic alkyl tails” (Eur J Med Chem, 2018).
pIC50, pKd: −log10 of the molar value. Converted amounts (≈) assume the structure as drawn. The source made the active and inactive calls. No cut-off for these calls is given here. Peptide text beside a SMILES is read from it. * marks the point of attachment. Palmitoyl = CCCCCCCCCCCCCCCC(=O)*

Columns and labels:
Lipid bilayer [1] = test: Induction of membrane permeabilization in calcein loaded PG/CL large unilamellar vesicles assessed as calcein leakage at 3 uM after 10 mins by fluorescence assay relative to control
U-937 [2] = test: Antiinflammatory activity in human U937 cells assessed as inhibition of LPS-induced TNF-alpha production after 24 hrs by ELISA; assay type: functional, cell-based
[3] = Self-assembly property assessed as diameter of monodispersed micelles at 1 mg/ml at pH 2 by TEM analysis; assay type: physicochemical
Lipopolysaccharide (LPS) [4] = test: Binding affinity to Escherichia coli 0111:B4 LPS assessed as equilibrium association constant by ITC method
Lipopolysaccharide (LPS) [5] = test: Induction of LPS micelles disaggergation assessed as small particle distribution at 2 uM by DLS method
Lipid bilayer [6] = test: Induction of membrane permeabilization in calcein loaded PC/cholesterol large unilamellar vesicles assessed as calcein leakage at 50 uM after 10 mins by fluorescence assay relative to control
Lipid bilayer [7] = test: Induction of membrane permeabilization in calcein loaded PG/CL/PE large unilamellar vesicles assessed as calcein leakage at 6 uM after 15 mins by fluorescence assay relative to control
U-937 [8] = test: Antiinflammatory activity in human U937 cells assessed as inhibition of LPS-induced TNF-alpha production at 12.6 uM after 24 hrs by ELISA relative to control; assay type: functional; settings: U-937, 24 h
Enterococcus faecium = test: Antimicrobial activity against Enterococcus faecium CGMCC 1.2334 after 18 hrs by micro dilution method; assay type: functional; settings: CGMCC 1.2334, 18 h
Lipid bilayer [9] = test: Induction of membrane permeabilization in calcein loaded PG/CL/PE large unilamellar vesicles assessed as calcein leakage at 3 uM after 10 mins by fluorescence assay relative to control
Escherichia coli [10] = test: Antimicrobial activity against Escherichia coli AS 1.349 assessed as induction of bacterial cytoplasmic membrane depolarization at 2 times MIC after 7 mins by diSC3-5 dye-based fluorescence assay; assay type: functional, organism-based
Enterococcus faecalis = test: Antimicrobial activity against Enterococcus faecalis CGMCC 1.595 after 18 hrs by micro dilution method; assay type: functional; settings: CGMCC 1.595, 18 h
Lipid bilayer [11] = test: Induction of membrane permeabilization in calcein loaded LPS/PC/PG large unilamellar vesicles assessed as calcein leakage after 15 mins by fluorescence assay
[12] = Hemolytic activity against human erythrocytes after 1 hr; assay type: ADME, cell-based, Erythrocyte
Staphylococcus aureus [13] = test: Antimicrobial activity against Staphylococcus aureus AS 1.72 assessed as induction of bacterial cytoplasmic membrane depolarization at 2 times MIC after 6 mins by diSC3-5 dye-based fluorescence assay; assay type: functional, organism-based
U-937 [14] = test: Antiinflammatory activity in human U937 cells assessed as inhibition of LPS-induced TNF-alpha production at 6.25 uM after 24 hrs by ELISA relative to control; assay type: functional; settings: U-937, 24 h
[15] = Cytotoxicity against human U937 cells assessed as cell viability at 3.13 to 12.6 uM after 1 hr by MTT assay relative to control; assay type: cell-based, U-937; settings: read-out: Activity
Bacillus cereus = test: Antimicrobial activity against Bacillus cereus AS 1.126 after 18 hrs by micro dilution method; assay type: functional; settings: AS 1.126, 18 h
Lipid bilayer [16] = test: Induction of membrane permeabilization in calcein loaded LPS/PC/PG large unilamellar vesicles assessed as calcein leakage at 50 uM after 15 mins by fluorescence assay relative to control
A-375 = test: Cytotoxicity against human A375 cells assessed as reduction in cell viability after 1 hr by MTT assay; assay type: functional, cell-based; settings: A-375, 1 h
Lipid bilayer [17] = test: Induction of membrane permeabilization in PG/CL/PE large unilamellar vesicles assessed as blue shift at compound to lipid ratio of 10 by Tryptophan fluorescence spectroscopy
U-937 [18] = test: Antiinflammatory activity in human U937 cells assessed as inhibition of LPS-induced IL-6 production at 6.25 uM after 24 hrs by ELISA relative to control; assay type: functional; settings: U-937, 24 h
MCF7 = test: Cytotoxicity against human MCF7 cells assessed as reduction in cell viability after 1 hr by MTT assay; assay type: functional, cell-based; settings: MCF7, 1 h
Lipopolysaccharide (LPS) [19] = test: Binding affinity to Escherichia coli 0111:B4 LPS by ITC method
[20] = Self-assembly property assessed as diameter of tightly packed nanofibers at 1 mg/ml at pH 2 by TEM analysis; assay type: physicochemical
Staphylococcus aureus [21] = test: Antimicrobial activity against Staphylococcus aureus AS 1.72 assessed as induction of outer membrane permeabilization by measuring NPN uptake by fluorescence assay; assay type: functional, organism-based
Lipid bilayer [22] = test: Induction of membrane permeabilization in calcein loaded PG/CL large unilamellar vesicles assessed as calcein leakage at 6 uM after 15 mins by fluorescence assay relative to control
Lactococcus lactis = test: Antimicrobial activity against Streptococcus lactis AS 1.1690 after 18 hrs by micro dilution method; assay type: functional; settings: AS 1.1690, 18 h
[23] = Self-assembly property assessed as diameter of monodispersed micelles at 1 mg/ml at pH 7 by TEM analysis; assay type: physicochemical
Escherichia coli [24] = test: Antimicrobial activity against Escherichia coli AS 1.349 assessed as induction of outer membrane permeabilization by measuring NPN uptake by fluorescence assay; assay type: functional, organism-based
Pseudomonas aeruginosa = test: Antimicrobial activity against Pseudomonas aeruginosa CGMCC 1.860 after 18 hrs by micro dilution method; assay type: functional; settings: CGMCC 1.860, 18 h
Staphylococcus aureus [25] = test: Antimicrobial activity against Staphylococcus aureus AS 1.72 after 18 hrs by micro dilution method; assay type: functional; settings: AS 1.72, 18 h
Lipopolysaccharide (LPS) [26] = test: Induction of LPS micelles disaggergation assessed as abundant particle size formation at 2 uM by DLS method
Lipid bilayer [27] = test: Induction of membrane permeabilization in PG/CL large unilamellar vesicles assessed as blue shift at compound to lipid ratio of 60 by Tryptophan fluorescence spectroscopy
Escherichia coli [28] = test: Antimicrobial activity against Escherichia coli AS 1.349 after 18 hrs by micro dilution method; assay type: functional; settings: AS 1.349, 18 h
U-937 [29] = test: Antiinflammatory activity in human U937 cells assessed as inhibition of LPS-induced IL-6 production at 3.13 uM after 24 hrs by ELISA relative to control; assay type: functional; settings: U-937, 24 h
U-937 [30] = test: Antiinflammatory activity in human U937 cells assessed as inhibition of LPS-induced IL-6 production after 24 hrs by ELISA; assay type: functional, cell-based
U-937 [31] = test: Antiinflammatory activity in human U937 cells assessed as inhibition of LPS-induced IL-6 production at 12.6 uM after 24 hrs by ELISA relative to control; assay type: functional; settings: U-937, 24 h
HeLa = test: Cytotoxicity against human HeLa cells assessed as reduction in cell viability after 1 hr by MTT assay; assay type: functional, cell-based
U-937 [32] = test: Antiinflammatory activity in human U937 cells assessed as inhibition of LPS-induced TNF-alpha production at 3.13 uM after 24 hrs by ELISA relative to control; assay type: functional; settings: U-937, 24 h
Lipid bilayer [33] = test: Induction of membrane permeabilization in PC/cholesterol large unilamellar vesicles assessed as blue shift by Tryptophan fluorescence spectroscopy
[34] = Self-assembly property assessed as diameter of monodispersed micelles at 1 mg/ml at pH 7 by DLS method; assay type: physicochemical
[35] = Self-assembly property assessed as diameter of monodispersed micelles at 1 mg/ml at pH 2 by DLS method; assay type: physicochemical

CCCCCCCCCCCCCCCC(=O)N[C@@H](CO)C(=O)N[C@@H](CCCCN)C(=O)N[C@H](C(=O)N[C@@H](Cc1c[nH]c2ccccc12)C(=O)N[C@@H](CCCNC(=N)N)C(=O)N[C@@H](Cc1cnc[nH]1)C(=O)N[C@@H](Cc1c[nH]c2ccccc12)C(=O)N[C@@H](CCCNC(=N)N)C(=O)N[C@@H](CCCNC(=N)N)C(=O)N[C@@H](Cc1ccccc1)C(=O)N[C@@H](Cc1c[nH]c2ccccc12)C(=O)N[C@@H](Cc1cnc[nH]1)C(=O)N[C@@H](CCCNC(=N)N)C(=O)N[C@@H](C)C(=O)N[C@@H](Cc1cnc[nH]1)C(=O)N[C@@H](CCCNC(=N)N)C(=O)N[C@@H](CCCCN)C(=O)N[C@@H](CC(C)C)C(=O)O)C(C)C (Palmitoyl-SKVWRHWRRFWHRAHRKL-OH)
Activity (Lipid bilayer [1]): 46%
inhibition (U-937 [2]): Dose-dependent effect
Activity [3]: 5460 nm
Ka (Lipopolysaccharide (LPS) [4]): 114 mM⁻¹
Activity (Lipopolysaccharide (LPS) [5]): 400 nm
Activity (Lipid bilayer [6]): 20%
Activity (Lipid bilayer [7]): 54%
inhibition at 12.6 µM (U-937 [8]): 35%
MIC (Enterococcus faecium): 3.13 µM (≈ 8.71 µg/mL)
Activity (Lipid bilayer [9]): 33%
Activity (Escherichia coli [10]): Active
MIC (Enterococcus faecalis): 6.25 µM (≈ 17.4 µg/mL)
Activity (Lipid bilayer [11]): Dose-dependent effect
HC50 at 1 h [12]: > 500 µM
Activity (Staphylococcus aureus [13]): Active
inhibition at 6.25 µM (U-937 [14]): 32%
viability at 1 h, up to 12.6 µM [15]: 80%
MIC (Bacillus cereus): 6.25 µM (≈ 17.4 µg/mL)
Activity (Lipid bilayer [16]): 55%
pIC50 (A-375): 4.74
Activity (Lipid bilayer [17]): 14 nm
inhibition at 6.25 µM (U-937 [18]): 31%
pIC50 (MCF7): 4.69
pKd (Lipopolysaccharide (LPS) [19]): 5.06
Activity [20]: 200 nm
Activity (Staphylococcus aureus [21]): Dose-dependent effect
Activity (Lipid bilayer [22]): 80%
MIC (Lactococcus lactis): 3.13 µM (≈ 8.71 µg/mL)
Activity [23]: 24 nm
Activity (Escherichia coli [24]): Dose-dependent effect
MIC (Pseudomonas aeruginosa): 6.25 µM (≈ 17.4 µg/mL)
MIC (Staphylococcus aureus [25]): 12.5 µM (≈ 34.8 µg/mL)
Activity (Lipopolysaccharide (LPS) [26]): 100 nm
Activity (Lipid bilayer [27]): 18 nm
MIC (Escherichia coli [28]): 12.5 µM (≈ 34.8 µg/mL)
inhibition at 3.13 µM (U-937 [29]): 27%
inhibition (U-937 [30]): Dose-dependent effect
inhibition at 12.6 µM (U-937 [31]): 35%
pIC50 (HeLa): 4.68
inhibition at 3.13 µM (U-937 [32]): 24%
Activity (Lipid bilayer [33]): inactive

H-SKVWRHWRRFWHRAHRKL-OH
Activity (Lipid bilayer [6]): 20%
Activity [34]: 60 nm
MIC (Enterococcus faecium): 1.56 µM
Activity [35]: 3990 nm
MIC (Enterococcus faecalis): 3.13 µM
Activity (Lipid bilayer [11]): Dose-dependent effect
HC50 at 1 h [12]: > 500 µM
Activity (Staphylococcus aureus [13]): Active
MIC (Bacillus cereus): 3.13 µM
Activity (Lipid bilayer [16]): 62%
pIC50 (A-375): < 3.90
pIC50 (MCF7): 4.29
Activity (Staphylococcus aureus [21]): Dose-dependent effect
MIC (Lactococcus lactis): 3.13 µM
Activity [23]: 141 nm
Activity (Escherichia coli [24]): Dose-dependent effect
MIC (Pseudomonas aeruginosa): 1.56 µM
MIC (Staphylococcus aureus [25]): 3.13 µM
MIC (Escherichia coli [28]): 6.25 µM
pIC50 (HeLa): 3.95
